Test results: PMC6948154 (Cell reports, 2019)

Key:
[1] = biological target: Hedgehog acyltransferase (Hhat) (Homo sapiens, UniProt Q5VTY9, Y351A); assay: in vitro Shh peptide palmitoylation by purified Y351A Hhat; format: biochemical
[2] = biological target: Hedgehog acyltransferase (Hhat) (Homo sapiens, UniProt Q5VTY9); assay: NBD-palmitoyl-CoA uptake into liposomes with purified Hhat; format: biochemical
Hedgehog acyltransferase (Hhat) (Homo sapiens, UniProt Q5VTY9), sequence (Q5VTY9 whole entry): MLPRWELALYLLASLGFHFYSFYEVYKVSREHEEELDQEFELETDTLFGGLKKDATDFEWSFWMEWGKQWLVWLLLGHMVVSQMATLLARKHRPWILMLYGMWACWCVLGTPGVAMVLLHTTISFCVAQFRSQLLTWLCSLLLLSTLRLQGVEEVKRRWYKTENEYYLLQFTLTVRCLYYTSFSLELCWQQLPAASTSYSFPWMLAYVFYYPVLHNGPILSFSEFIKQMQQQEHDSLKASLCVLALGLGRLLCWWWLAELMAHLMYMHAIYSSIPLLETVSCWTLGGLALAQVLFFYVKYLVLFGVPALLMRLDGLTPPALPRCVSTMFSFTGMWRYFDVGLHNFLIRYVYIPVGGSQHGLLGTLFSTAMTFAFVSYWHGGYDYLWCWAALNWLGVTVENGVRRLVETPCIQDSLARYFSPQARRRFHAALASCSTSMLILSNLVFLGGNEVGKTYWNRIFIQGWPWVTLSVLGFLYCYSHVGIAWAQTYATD

Hedgehog acyltransferase (Hhat) (Homo sapiens, UniProt Q5VTY9, Y351A), sequence (Q5VTY9 whole entry Y351A): as the sequence (Q5VTY9 whole entry) above, with Y351A counted along it

Compound | in vitro Shh peptide palmitoylation by purified Y351A Hhat [1] | IC50 [2] [nM]
CC(C)(COP(=O)(O)OP(=O)(O)OC[C@H]1O[C@@H](n2cnc3c(N)ncnc32)[C@H](O)[C@@H]1OP(=O)(O)O)[C@@H](O)C(=O)NCCC(=O)NCCSC(=O)CCCCCCCCCCCCCCCI [[125I] IodoPalmitoyl-CoA] | Y351A retained near-WT levels of Shh palmitoylation activity when assayed in vitro using detergent-solubilized membranes and as a purified enzyme | –
TDI-3410 | – | 2450
